Here are results for five molecules from ChEMBL document CHEMBL5500343, “Activity refinement of aryl amino acetamides that target the P. falciparum STAR-related lipid transfer 1 protein” (Eur J Med Chem, 2024).

Converted amounts (≈) assume the structure as drawn. The source made the active and inactive calls. No cut-off for these calls is given here.

The test system of data set [1] is Plasmodium falciparum. The experiment in a line: Antimalarial activity against Plasmodium falciparum Dd2 assessed as reduction in parasite growth incubated for 72 hrs by [3H]-hypoxanthine incorporation assay. The data set is classed as functional, organism-based.
Data set [2] deals with Plasmodium falciparum. The experiment in a line: Antimalarial activity against DSM-265 resistant Plasmodium falciparum Dd2 harboring DHODH C276F mutant assessed as reduction in parasite growth incubated for 72 hrs by [3H]-hypoxanthine incorporation assay. Format: functional, organism-based.
Data set [3] has as its system Plasmodium falciparum. The experiment in a line: Antimalarial activity against asexual blood stage Plasmodium falciparum Dd2-F6 assessed as minimum inoculum of resistance at 5 times IC50 measured for 35 days by SYBR Green I dye based flow cytometry. As to conditions: time 35 day. The data set is classed as functional. (In general: Flow cytometry measures light scatter and fluorescence of single cells or particles in a stream.)

The subject of data set [4] is Plasmodium berghei. The data set is described as follows: Antimalarial activity against Plasmodium berghei ANKA infected in mouse assessed as reduction of parasitaemia at 30 mg/kg,po bid administrated for 72 hrs and measured after 24 hrs post last dose by Giemsa staining based microscopic analysis relative to control. Format: functional. Details: scale not given: the % may be the effect or the level left. As to conditions: time 96 hrs.

Data set [5] relates to Plasmodium falciparum. The data set is described as follows: Antimalarial activity against asexual blood stage Plasmodium falciparum 3D7 assessed as reduction in parasite growth incubated for 72 hrs by LDH assay. The data set is classed as functional, organism-based. The conditions noted are these: 3D7, 72 h.
Data set [6] in a line: Intrinsic clearance in rat hepatocyte measured per 10^6 cells at 1 uM incubated upto 90 mins by LC-MS/MS analysis. The data set is classed as ADME, cell-based. The conditions noted are these: rat hepatocytes, read-out: CLH.
The subject of the next data set is HepG2. The experiment in a line: Cytotoxicity against human HepG2 cells assessed as reduction in cell viability incubated for 48 hrs by Cell Titer-Glo assay. Format: functional, cell-based. As to conditions: HepG2, 48 h.
The nature of data set [7]: Kinetic aqueous solubility of the compound in PBS at pH 7.4 incubated for 2 hr under shaking condition by shake flask based UV reader plate analysis. The data set is classed as physicochemical. The conditions noted are these: read-out: Kinetic_solubility.
A short description of data set [8]: Intrinsic clearance in human liver microsomes at 1 uM incubated upto 60 mins in presence of NADPH by LC-MS/MS analysis. Format: ADME, Microsome. The conditions noted are these: read-out: CLH. (Microsomes from liver hold many membrane-bound enzymes, among them those of drug oxidation.)
The nature of data set [9]: Lipophilicity, LogD of compound in 1-Octanol and PBS at pH 7.4 at 7.5 uM incubated for 2 hrs shake flask method based LC-MS/MS analysis. Format: physicochemical. The conditions noted are these: 1-octanol/PBS.
Data set [10] concerns Plasmodium falciparum. The data set is described as follows: Antimalarial activity against MMV006833 resistant Plasmodium falciparum 3D7 assessed as reduction in parasite growth incubated for 72 hrs by LDH assay. The data set is classed as functional, organism-based. The conditions noted are these: 3D7, 72 h.
The test system of data set [11] is Plasmodium falciparum. The experiment in a line: Antimalarial activity against MMV006833 resistant Plasmodium falciparum 3D7 harboring START1 N309K mutant assessed as reduction in parasite growth incubated for 72 hrs by LDH assay. The data set is classed as functional, organism-based. As to conditions: 3D7, 72 h.
In data set [12] the test system is Plasmodium falciparum. The data set is described as follows: Antimalarial activity against MMV006833 resistant Plasmodium falciparum 3D7 harboring START1 N330K mutant assessed as reduction in parasite growth incubated for 72 hrs by LDH assay. The conditions noted are these: 3D7, 72 h. The data set is classed as functional, organism-based.
Data set [13] deals with Plasmodium falciparum. The data set is described as follows: Antimalarial activity against KAF-156 resistant Plasmodium falciparum Dd2 harboring CARL I1139K mutant assessed as reduction in parasite growth incubated for 72 hrs by [3H]-hypoxanthine incorporation assay. The data set is classed as functional, organism-based.
The subject of data set [14] is Plasmodium falciparum. The data set is described as follows: Antimalarial activity against DDD-107498 resistant Plasmodium falciparum Dd2 harboring eEF2 Y86N mutant assessed as reduction in parasite growth incubated for 72 hrs by [3H]-hypoxanthine incorporation assay. The data set is classed as functional, organism-based.
Data set [15] deals with Plasmodium falciparum. The experiment in a line: Antimalarial activity against MMV-048 resistant Plasmodium falciparum Dd2 harboring PI4K S743T mutant assessed as reduction in parasite growth incubated for 72 hrs by [3H]-hypoxanthine incorporation assay. Format: functional, organism-based.
Data set [16] deals with Plasmodium falciparum. The experiment in a line: Antimalarial activity against ELQ-300 resistant Plasmodium falciparum Dd2 harboring Cyt b I22L mutant assessed as reduction in parasite growth incubated for 72 hrs by [3H]-hypoxanthine incorporation assay. The data set is classed as functional, organism-based.
For data set [17], the system named is Plasmodium falciparum. The data set is described as follows: Antimalarial activity against chloroquine and mefloquine resistant Plasmodium falciparum K1 assessed as reduction in parasite growth incubated for 72 hrs by [3H]-hypoxanthine incorporation assay. The data set is classed as functional, organism-based.
The test system of data set [18] is Plasmodium falciparum. The data set is described as follows: Antimalarial activity against chloroquine and mefloquine resistant Plasmodium falciparum NF54 assessed as reduction in parasite growth incubated for 72 hrs by [3H]-hypoxanthine incorporation assay. The data set is classed as functional, organism-based.
The test system of data set [19] is Plasmodium falciparum. The experiment in a line: Antimalarial activity against atovaquone resistant Plasmodium falciparum TM90-C2B assessed as reduction in parasite growth incubated for 72 hrs by [3H]-hypoxanthine incorporation assay. The data set is classed as functional, organism-based.
The test system of data set [20] is Plasmodium falciparum. The data set is described as follows: Antimalarial activity against chloroquine and mefloquine resistant Plasmodium falciparum 7G8 assessed as reduction in parasite growth incubated for 72 hrs by [3H]-hypoxanthine incorporation assay. Format: functional, organism-based.
The test system of data set [21] is Plasmodium falciparum. The experiment in a line: Antimalarial activity against chloroquine and mefloquine resistant Plasmodium falciparum RF12 assessed as reduction in parasite growth incubated for 72 hrs by [3H]-hypoxanthine incorporation assay. The data set is classed as functional, organism-based.
Data set [22] in a line: Binding affinity to recombinant Plasmodium falciparum START1 assessed as dissociation constant by isothermal titration calorimetry. (Isothermal titration calorimetry measures the heat released or taken up as one component is titrated into another.)
The test system of data set [23] is Plasmodium falciparum. The data set is described as follows: Antimalarial activity against asexual blood stage Plasmodium falciparum Dd2-B2 assessed as reduction in parasite growth measured for 60 days by flow cytometry. Format: functional. As to conditions: Dd2-B2, 1440 h, time 60 day.
Data set [24] deals with Plasmodium falciparum. The experiment in a line: Antimalarial activity against asexual blood stage Plasmodium falciparum Dd2-B2 assessed as reduction in recrudescence measured for 60 days by flow cytometry. The data set is classed as functional, organism-based. As to conditions: time 60.0 day.
Data set [25] deals with Plasmodium falciparum. The data set is described as follows: Antimalarial activity against asexual blood stage Plasmodium falciparum Dd2-F6 assessed as minimum inoculum of resistance at 2.2 times IC50 measured for 35 days by SYBR Green I dye based flow cytometry. The conditions noted are these: time 35 day. The data set is classed as functional.
The nature of data set [26]: Drug concentration in Swiss mouse plasma at 50 mg/kg,po administration measured upto 24 hrs by LC-MS/MS analysis. The data set is classed as ADME, organism-based. The conditions noted are these: in vivo.
Data set [27] is described as follows: Drug concentration in Swiss mouse plasma at 50 mg/kg,po administration measured after 15 mins by LC-MS/MS analysis. The data set is classed as ADME, organism-based.
The nature of data set [28]: Apparent half life in Swiss mouse at 50 mg/kg,po administration measured for 4 to 24 hrs by LC-MS/MS analysis. Format: ADME, organism-based. As to conditions: in vivo, time 4-24 hrs, read-out: t1/2(app) (converted).
Data set [29] in a line: Drug concentration in Swiss mouse plasma at 50 mg/kg,po administration measured after 12 hrs by LC-MS/MS analysis. Format: ADME, organism-based. As to conditions: in vivo.
Data set [30] can be described thus: Toxicity in Swiss mouse at 50 mg/kg,po administration measured upto 24 hrs by LC-MS/MS analysis. Format: organism-based. As to conditions: in vivo.
In data set [31] the test system is Plasmodium berghei. The experiment in a line: Antimalarial activity against Plasmodium berghei ANKA infected in mouse assessed as reduction of parasitaemia at 50 mg/kg,po bid administrated for 72 hrs and measured after 24 hrs post last dose by Giemsa staining based microscopic analysis. Format: functional, organism-based. As to conditions: time 96.0 hrs.
A short description of data set [32]: Toxicity in mouse infected with Plasmodium berghei ANKA assessed as change in body weight at 50 mg/kg,po bid administrated for 72 hrs and measured after 24 hrs post last dose. As to conditions: in vivo. Format: organism-based.
For data set [33], the system named is Plasmodium falciparum. The data set is described as follows: Binding affinity to recombinant Plasmodium falciparum START1 assessed as change in enthalpy at 10 uM by isothermal titration calorimetry.
Data set [34] relates to Plasmodium falciparum. The data set is described as follows: Binding affinity to recombinant Plasmodium falciparum START1 assessed as change in entropy at 10 uM by isothermal titration calorimetry.

Turning to `Cc1cc(Nc2ccc(S(F)(F)(F)(F)F)cc2)n2nc(C(C)(F)F)nc2n1` [DSM-265], the EC50 (commonly the midpoint of the concentration-response curve) in the data set with Plasmodium falciparum [1] stood at 24 nM; with Plasmodium falciparum [2] it was 470 nM. Also, the Activity in the data set with Plasmodium falciparum [3] is on record as 1.6 10^6No_unit.

Consider `C[C@@H]1CC[C@H]2[C@@H](C)C(=O)O[C@@H]3O[C@@]4(C)CC[C@@H]1[C@]32OO4` [ARTEMISININ], for which the Activity in the data set on Plasmodium berghei [4] is greater than 98%.

Take `CC(C)(Nc1ccc(Cl)c(S(=O)(=O)N2CCOCC2)c1)C(=O)Nc1ccc(F)c(Cl)c1`: the EC50 amounted to 5 nM in the data set with Plasmodium falciparum [5]; 31500 nM with HepG2; 4 nM with Plasmodium falciparum [10]; 3200 nM in the data set on Plasmodium falciparum [11]; 2200 nM with Plasmodium falciparum [12]; 1 nM with Plasmodium falciparum [1]. For the same molecule, the EC50 with Plasmodium falciparum [13] stood at 1 nM; with Plasmodium falciparum [2], 1 nM; with Plasmodium falciparum [14], 1 nM; in the data set with Plasmodium falciparum [15] it was 1 nM; with Plasmodium falciparum [16], 1 nM; with Plasmodium falciparum [17], 2 nM. In addition, the EC50 turned out to be 2 nM with Plasmodium falciparum [18], 1 nM in the data set with Plasmodium falciparum [19], 1 nM with Plasmodium falciparum [20] and 1 nM with Plasmodium falciparum [21]. Besides, the hepatocyte CLint at 1 µM in data set [6] is greater than 92 µL/min/1e6 cells. Besides, the solubility kinetic at 2 h in data set [7] stood at 16 µM (≈ 7.85 µg/mL). Besides, in [8], the microsomal CLint at 1 µM was greater than 462 µL/min/mg. For the same molecule, in [9], the logD (usually lipophilicity at a set pH, counting ionised and neutral species) at 2 h, 7.5 µM was found to be 3.9. In addition, the Kd – broadly, the equilibrium constant for the complex coming apart – in data set [22] stood at 10 nM. For the same molecule, the EC90 (in general, the concentration needed for an effect of 90%) with Plasmodium falciparum [23] was 9.7 nM. In addition, the outcome in the data set with Plasmodium falciparum [24] was inactive. For the same molecule, the Activity in the data set on Plasmodium falciparum [25] was 1.9 10^7No_unit.

For `O=C(CNc1ccc(Cl)c(S(=O)(=O)N2CCOCC2)c1)Nc1ccc(F)c(Cl)c1`, the EC50 with Plasmodium falciparum [5] is 80 nM; in the data set with HepG2, greater than 40000 nM; with Plasmodium falciparum [1] it was 54 nM; with Plasmodium falciparum [13] it was 26 nM; in the data set with Plasmodium falciparum [2], 20 nM; in the data set with Plasmodium falciparum [14], 28 nM. In addition, the EC50 with Plasmodium falciparum [15] came to 28 nM; with Plasmodium falciparum [16], 24 nM; in the data set on Plasmodium falciparum [17], 48 nM; in the data set on Plasmodium falciparum [18], 42 nM; in the data set on Plasmodium falciparum [19], 31 nM; in the data set on Plasmodium falciparum [20] it was 26 nM. In the data set on Plasmodium falciparum [21], the concentration giving a half-maximal response (EC50) was 32 nM. In addition, the hepatocyte CLint at 1 µM in data set [6] is greater than 92 µL/min/1e6 cells. Further, the solubility kinetic at 2 h in data set [7] turned out to be 19 µM (≈ 8.78 µg/mL). The microsomal CLint at 1 µM in [8] was greater than 462 µL/min/mg. Besides, in data set [9], the logD at 2 h, 7.5 µM was 2.2.

For the molecule `CC(C)(Nc1ccc(Cl)c(S(=O)(=O)N2CCOCC2)c1)C(=O)Nc1cncc(Cl)c1`, the EC50 is 15 nM in the data set with Plasmodium falciparum [5] and greater than 40000 nM with HepG2. Further, the hepatocyte CLint at 1 µM in [6] came out at 68 µL/min/1e6 cells. Besides, the solubility kinetic at 2 h in data set [7] is 60 µM (≈ 28.4 µg/mL). Also, the microsomal CLint at 1 µM in data set [8] was greater than 462 µL/min/mg. Also, the logD at 2 h, 7.5 µM in data set [9] was 3.2. Further, the Drug uptake result in data set [26] and in data set [29] was “Active” in each case. In data set [27], this molecule yielded a concentration at 0.25 h of roughly 1200 nM. For the same molecule, the half-life in [28] was 5.9 h. The Activity result in data set [30] and in data set [32] was “Non-Toxic” in each case. For the same molecule, the result in the data set on Plasmodium berghei [31] was inactive. Further, in the data set with Plasmodium falciparum [33], the deltaH is -11.6 kcal/mol. The -TdeltaS in the data set on Plasmodium falciparum [34] is 0.8 kcal/mol. For the same molecule, in data set [22], the Kd was 14 nM.
